Assay results from US11168069B2, “Heterocyclylsulfonyl-substituted pyridines and their use in the treatment of cancer” (Oblique Therapeutics AB, priority 2017, dated 2021).

Assays:
[1] = target: recombinant thioredoxin reductase 1 (TrxR1) (Homo sapiens (Human), UniProt Q16881); test: Inhibition of recombinant TrxR1 (DTNB assay); format: biochemical; settings: 30 nM TrxR1, 250 μM NADPH, 15 minutes incubation, O.D. 412 nm, read-out: TrxR Assay IC50
Procedure: (§1) Small molecule inhibition of recombinant thioredoxin reductase 1 (TrxR1) and gluthathione reductase (GR) was examined in 96-well plate format. 30 nM TrxR1 was incubated in the presence of 250 μM NADPH, 0.1 mg/ml BSA, and various concentrations of compound (1% DMSO final) in 50 mM Tris (pH 7.5) and 2 mM EDTA buffer for 15 minutes. Following the incubation period, 2 mM DTNB was added to each well and the change in O.D. at 412 nm was followed. Percent activity was determined using DMSO vehicle and no TrxR1 (blank) controls. 2 nM GR was incubated in the presence of 250 μM NADPH, 0.1 mg/ml BSA, and various concentrations of compounds (1% DMSO final) in 50 mM Tris (pH 7.5) and 2 mM EDTA buffer for 15 minutes. Following the incubation period, 1 mM GSSG was added to each well and the change in O.D. at 340 nm was followed. Percent activity was determined using DMSO vehicle and no GR (blank) controls.

[2] = target: recombinant gluthathione reductase (GR) (Homo sapiens (Human), UniProt P00390); test: Inhibition of recombinant GR (GSSG assay); format: biochemical; settings: 2 nM GR, 250 μM NADPH, 15 minutes incubation, O.D. 340 nm
recombinant gluthathione reductase (GR), sequence (P00390 44-522): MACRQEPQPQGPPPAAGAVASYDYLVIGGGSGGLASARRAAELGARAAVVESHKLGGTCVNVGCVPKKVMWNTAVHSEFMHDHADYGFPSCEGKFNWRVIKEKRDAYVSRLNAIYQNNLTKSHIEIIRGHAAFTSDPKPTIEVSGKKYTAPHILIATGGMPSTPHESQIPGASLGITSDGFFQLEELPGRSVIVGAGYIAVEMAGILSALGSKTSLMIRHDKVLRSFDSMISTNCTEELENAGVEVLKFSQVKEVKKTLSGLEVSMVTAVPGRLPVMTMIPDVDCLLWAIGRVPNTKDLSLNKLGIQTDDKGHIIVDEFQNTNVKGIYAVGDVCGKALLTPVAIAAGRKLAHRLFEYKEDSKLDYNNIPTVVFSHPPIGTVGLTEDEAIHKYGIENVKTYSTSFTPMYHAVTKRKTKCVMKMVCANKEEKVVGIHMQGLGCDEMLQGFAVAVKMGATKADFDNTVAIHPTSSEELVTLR
Procedure: as §1

MDA-MB-231 = test: Cancer cell viability assay (MTT), MDA-MB-231; format: cell-based; settings: Homo sapiens, 72 hrs, 10% FBS media
Procedure: (§2) Breast cancer and glioblastoma cell lines were plated 4000 cells/well in 96-well plates in the presence of 10% FBS media. The following day cells were treated with various concentrations of example compounds (0.1% DMSO final) and incubated for 72 hrs. After the incubation An MTT assay was performed to access cell viability. Percent of viability was determined using DMSO vehicle and no cell (blank) controls.

MDA-MB-468 = test: Cancer cell viability assay (MTT), MDA-MB-468; format: cell-based; settings: Homo sapiens, 72 hrs, 10% FBS media
Procedure: as §2

MDA-MB-231 cells = test: Breast cancer cell viability assay (Alamar Blue); format: cell-based; settings: Homo sapiens, 72 hrs, 10% FBS media containing 25 nM selenite
Procedure: MDA-MB-231 cells were plated 2000 cells/well in 96-well black optical plates in the presence of 10% FBS media containing 25 nM selenite. The following day cells were treated with various concentrations of compounds (0.1% DMSO final) and incubated for 72 hrs. After the incubation Alamar Blue reagent was added to each well and incubated for additional 3 hrs. Fluorescence was read ex:530 nm/em:590 nm, and percent of viability was determined using DMSO vehicle and no cell (blank) controls.

U-87 MG = test: Cancer cell viability assay (MTT), U-87 MG; format: cell-based; settings: Homo sapiens, 72 hrs, 10% FBS media
Procedure: as §2

recombinant thioredoxin reductase 1 (TrxR1), sequence (Q16881 151-649): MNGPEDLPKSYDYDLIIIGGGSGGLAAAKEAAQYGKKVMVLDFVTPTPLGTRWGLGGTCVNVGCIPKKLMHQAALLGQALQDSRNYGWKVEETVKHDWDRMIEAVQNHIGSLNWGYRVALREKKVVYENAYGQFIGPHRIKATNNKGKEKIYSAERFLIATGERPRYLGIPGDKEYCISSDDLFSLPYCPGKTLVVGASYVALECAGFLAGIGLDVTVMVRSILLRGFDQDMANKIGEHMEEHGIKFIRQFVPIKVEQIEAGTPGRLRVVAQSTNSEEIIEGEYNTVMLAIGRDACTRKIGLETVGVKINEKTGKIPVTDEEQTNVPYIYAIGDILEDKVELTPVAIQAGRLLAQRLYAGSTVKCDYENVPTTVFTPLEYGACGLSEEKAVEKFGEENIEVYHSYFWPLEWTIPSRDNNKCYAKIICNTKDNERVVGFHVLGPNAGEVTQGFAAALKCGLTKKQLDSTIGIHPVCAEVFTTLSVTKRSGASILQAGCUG

Compound	IC50 [1]	IC50 [2]	IC50 (MDA-MB-231)	IC50 (MDA-MB-468)	IC50 (MDA-MB-231 cells)	IC50 (U-87 MG)
COc1ccc([N+](=O)[O-])c([S+]([O-])C2CCOCC2)n1 (stereo not shown) [Example 5, 6-Methoxy-3-nitro-2-(tetrahydro-pyran-4-ylsulfinyl)-pyridine]	4.33 µM	> 100 µM	3.57 µM	2.4 µM	–	–
COc1ccc([N+](=O)[O-])c(S(=O)(=O)C2CCN(C(C)=O)CC2)n1 [Example 2, 1-(4-((6-methoxy-3-nitropyridin-2-yl)sulfonyl)piperidin-1-yl)ethan-1-one]	0.391 µM	> 100 µM	9.97 µM	4 µM	12.3 µM	10.6 µM
COc1ccc([N+](=O)[O-])c(S(=O)(=O)C2CCOC2C)n1 (stereo not shown) [Example 1]	0.093 µM	> 100 µM	8.94 µM	4.14 µM	4.53 µM	8.89 µM
COc1ccc([N+](=O)[O-])c([S+]([O-])C2CCOC2C)n1 (stereo not shown) [Example 4, 6-Methoxy-2-(2-methyl-tetrahydro-furan-3-ylsulfinyl)-3-nitro-pyridine]	1.01 µM	> 100 µM	3.54 µM	2.1 µM	–	9.27 µM
COc1ccc([N+](=O)[O-])c([S+]([O-])C2CCN(C(C)=O)CC2)n1 (stereo not shown) [Example 6, 1-[4-(6-Methoxy-3-nitro-pyridin-2-ylsulfinyl)-piperidin-1-yl]-ethanone]	4.06 µM	> 100 µM	11.6 µM	5.58 µM	–	–
COc1ccc([N+](=O)[O-])c(S(=O)(=O)C2CCOCC2)n1 [Example 3, 6-methoxy-3-nitro-2-((tetrahydro-2H-pyran-4-yl)sulfonyl)pyridine]	0.0391 µM	> 100 µM	7.53 µM	4.34 µM	5.08 µM	6.11 µM
